From PubChem BioAssay (NCI) come the findings set out here.

Test in all cases: growth of human tumour cells (NCI), 48 h
Assay [1] concerns HCC-2998 colon.
Assay [2] deals with HL-60(TB) leukemia.
The test system of assay [3] is HOP-92 NSCLC.
Assay [4] relates to HS 578T breast.
Assay [5] has as its system IGROV1 ovarian.
The subject of assay [6] is MDA-MB-435.
In assay [7] the test system is NCI/ADR-RES ovarian.
Assay [8] has as its system OVCAR-8 ovarian.

SMILES strings stand for the structures.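 Assay format: 96-well plates, 48-hour exposure. GI50 = concentration required for 50% inhibition of growth. TGI denotes the concentration required for complete inhibition of growth.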

Turning to `Cc1ccc(NC(C(=O)c2ccccc2)c2ccccc2)cc1` (stereo not drawn), the GI50 in assay [1] is 4.52 µM; in assay [2], 2.59 µM; in assay [3] it was 3.58 µM; in assay [4], 2.09 µM; in assay [5], 2.11 µM; in assay [6] it was 2.63 µM. For the same compound, the GI50 in assay [7] is 18.8 µM; in assay [8], 3.52 µM. Moreover, the TGI is over 100 µM in assay [1]; 6.57 µM in assay [2]; 8.95 µM in assay [3]; 7.79 µM in assay [4]; 22.6 µM in assay [5]; 12.7 µM in assay [6]. The TGI in assay [7] and in assay [8] was over 100 µM each time.
As to `C=C1C(=O)O[C@H]2[C@H]1CC/C(COC(=O)c1cccc3ccccc13)=C\CC[C@@]1(C)O[C@@H]21`, the GI50 is 1.98 µM in assay [1]; 1.66 µM in assay [2]; 1.01 µM in assay [3]; 1.98 µM in assay [4]; 1.03 µM in assay [5]; 1.53 µM in assay [6]. Further, the GI50 in assay [7] was 2.19 µM; in assay [8] it was 1.7 µM. Also, the TGI in assay [1] came out at 3.76 µM; in assay [2], 7.56 µM; in assay [3], 2.61 µM; in assay [4], 6.01 µM; in assay [5] it was 2.79 µM; in assay [6], 3.35 µM. Also, the results for the TGI in assay [7] and in assay [8] were 6.45 µM and 5.42 µM, respectively.
For the compound `O=c1[nH]cc(CO)c(=O)[nH]1`, the GI50 in assay [1], in assay [2], in assay [3], in assay [4], in assay [5] and in assay [6] was over 100 µM each time. For the same compound, the GI50 in assay [7] and in assay [8] was over 100 µM each time. Moreover, the TGI in assay [1], in assay [2], in assay [3], in assay [4], in assay [5] and in assay [6] was over 100 µM each time. The TGI in assay [7] and in assay [8] was over 100 µM in each case.
On to `COc1ccc(C2=NNC(c3cc(Cc4ccc(O)c(C5CC(c6ccc(OC)cc6)=NN5)c4)ccc3O)C2)cc1` (stereo not drawn), for which the GI50 in assay [1] is 46 µM; in assay [2] it was 23.4 µM; in assay [3], 8.28 µM; in assay [4], 5.58 µM; in assay [5] it was 13.7 µM; in assay [6] it was 8.52 µM. Also, the GI50 is 7.39 µM in assay [7] and 6.36 µM in assay [8]. Besides, the TGI in assay [1] is over 100 µM; in assay [2] it was over 100 µM; in assay [3] it was over 100 µM; in assay [4], 68 µM; in assay [5], over 100 µM; in assay [6], over 100 µM. In addition, the TGI in assay [7] and in assay [8] was over 100 µM throughout.
In the case of `NS(=O)(=O)c1cccc(-c2cc3ccncc3cc2OCc2ccccc2)c1`, the GI50 is 15.2 µM in assay [1]; 4.64 µM in assay [2]; 4.39 µM in assay [3]; 4.2 µM in assay [4]; over 20.7 µM in assay [5]; 12.7 µM in assay [6]. The GI50 was 11.2 µM in assay [7] and 10.1 µM in assay [8]. For the same compound, the TGI is over 25 µM in assay [1]; 13.5 µM in assay [2]; over 25 µM in assay [3]; over 18.4 µM in assay [4]; over 25 µM in assay [5]; over 25 µM in assay [6]. The TGI in assay [7] and in assay [8] was over 25 µM each time.
On to `COc1ccc(Oc2nc(Nc3ccc(N4CCOCC4)cc3)ncc2NC(=O)Nc2cc(OC)cc(OC)c2)cc1`, for which the GI50 in assay [1] was 2.11 µM; in assay [2], 10.8 µM; in assay [3], 1.26 µM; in assay [4], 8 µM; in assay [5] it was 4.45 µM; in assay [6], 2.33 µM. The GI50 in assay [7] is over 33.3 µM; in assay [8] it was 4.65 µM. Besides, the TGI in assay [1] is 7.16 µM; in assay [2], over 33.3 µM; in assay [3], 5.1 µM; in assay [4], over 33.3 µM; in assay [5], 13.9 µM; in assay [6] it was 17.1 µM. In addition, the TGI in assay [7] and in assay [8] was over 33.3 µM in each case.
`O=S1CCN(Cc2ccc(-c3ccc4ncnc(Nc5ccc(OCc6ccccc6)c(F)c5)c4c3)o2)CC1`: the GI50 is 9.93 µM in assay [1]; 8.32 µM in assay [2]; 3.76 µM in assay [3]; 8.89 µM in assay [4]; 1.29 µM in assay [5]; 7.21 µM in assay [6]. The GI50 is 7.36 µM in assay [7] and 11.4 µM in assay [8]. Moreover, the TGI in assay [1] was over 25 µM; in assay [2], 18.6 µM; in assay [3] it was 17.7 µM; in assay [4], over 25 µM; in assay [5], over 25 µM; in assay [6], over 24.2 µM. Besides, the TGI in assay [7] and in assay [8] was over 25 µM each time.
As to `CC(=O)Nc1c(I)c(C(=O)O)c(I)c(N(C)C(C)=O)c1I`, the GI50 is over 100 µM in assay [1]; over 100 µM in assay [2]; over 100 µM in assay [3]; 46.4 µM in assay [4]; over 100 µM in assay [5]; over 100 µM in assay [6]. Also, the GI50 in assay [7] and in assay [8] was over 100 µM throughout. For the same compound, the TGI in assay [1], in assay [2], in assay [3], in assay [4], in assay [5] and in assay [6] was over 100 µM each time. The TGI in assay [7] and in assay [8] was over 100 µM in each case.
